Reference: the NIST ThermoML archive (doi:10.1016/j.fluid.2016.02.013)
Numbers after ± are expanded uncertainties.

Settings: 101.33 kPa, Liquid; for viscosity: Concentric cylinders viscometry; for mass density: Vibrating tube method; for electrical conductivity: impedance analyzer

CCCC[P+](CCCC)(CCCC)CCCC.O=C([O-])[C@@H]1CCCN1 [tetrabutylphosphonium L-prolinate]
Settings	electrical conductivity [S/m]	mass density [kg/m3]	viscosity [mPa·s]
298.15 K	0.00727	971.1 ± 0.8	1025 ± 43
303.15 K	0.0105	968.2 ± 0.8	692.8 ± 26
313.15 K	0.0201 ± 0.04	962.38 ± 0.79	343.6 ± 9.6
323.15 K	0.0354 ± 0.04	956.46 ± 0.79	186.1 ± 3.8
333.15 K	0.0584 ± 0.04	950.54 ± 0.78	108.7 ± 1.6
343.15 K	0.0907 ± 0.04	944.63 ± 0.77	67.74 ± 0.74
353.15 K	0.134 ± 0.04	938.75 ± 0.77	44.5 ± 0.47
363.15 K	–	932.9 ± 0.76	30.61 ± 0.33
